The values that follow come from patent US6916937B2, “Carbohydrate prodrugs of fluorooxindoles” (Bristol-Myers Squibb Company, priority 2003, dated 2005).

Assay [1] deals with cloned mammalian (mSlo or hSlo) BK channels. The experiment in a line: Increase of BK-mediated outward current in Xenopus oocytes, two-electrode voltage clamp. The class given is cell-based. The settings on record: 10 μM; at least 5 oocytes; mSlo or hSlo expressed in Xenopus oocytes. How it is done:
(§1) The ability of the compound of Formula II to open BK channels and increase whole-cell outward (K^+) BK-mediated currents was assessed under voltage-clamp conditions by determining their ability to increase cloned mammalian (mSlo or hSlo) BK—mediated outward current heterologously expressed in Xenopus oocytes [Butler, A., et al., Science, 261, pp. 221-224 (1993); and Dworetzky, S. I., et al., Mol. Brain Res., 27, pp.189-193 (1994)]. The two BK constructs employed represent nearly structurally identical homologous proteins, and have proven to be pharmacologically identical in our tests. To isolate BK current from native (background, non-BK) current, the specific and potent BK channel-blocking toxin iberiotoxin (IBTX) [Galvez, A., et al., J. Biol. Chem, 265, pp.11083-11090 (1990)] was employed at a supramaximal concentration (50 nM). The relative contribution of BK channels current to total outward current was determined by subtraction of the current remaining in the presence of IBTX (non-BK current) from the current profiles obtained in all other experimental conditions (control, drug, and wash). […] The compound of Formula II was shown in at least 5 oocytes at a concentration of 10 μM to increase BK current to 170% of control of IBTX-sensitive current. […]

For assay [2], the system named is non-BK native currents in the oocytes. The experiment in a line: Effect on non-BK native currents in oocytes (current remaining with IBTX). The class given is cell-based, Xenopus. The settings on record: at the tested concentration. How it is done:
as §1

The subject of assay [3] is focal cerebral ischemia (MCAO) in the Wistar rat. The experiment in a line: Focal stroke model, permanent MCA and CCA occlusion. It is filed as in vivo. The settings on record: 0.3 mg/kg i.v. single bolus two hours after MCA occlusion; infarct measured 24 hours after MCAO. How it is done: To determine the ability of the compounds of the present invention to reduce cell loss resulting from neuronal ischemia, a standard focal cerebral ischemia is induced by permanent occlusion of the left middle cerebral artery (MCA) and common carotid artery (CCA) with one hour occlusion of the right CCA in the Wistar rat. The surgeries are performed using the sub-temporal approach of A. Tamura, et al., J. Cereb. Blood Flow Metab., 1, pp. 53-60, (1981) and its modifications [K. Osborne, et al., J. Neurol Neurosurg. Psychiatry, 50, pp. 402-410 (1987) and S. Menzies, et al., Neurosurgery, 31, pp. 100-107, (1992).]
The compound of Formula II was evaluated in the focal stroke model involving permanent occlusion of the left MCA (MCAO) and CCA (CCAO) and temporary occlusion of the right CCA in the Wistar rat [Gribkoff, et al. Nature Med. 7, pp. 471-477 (2001)]. This procedure results in a reliably large neocortical infarct volume that is measured by means of vital dye exclusion in serial slices through the brain 24 hours after MCAO. In the present test, compounds were administered using an i.v. or i.p. route of administration two hours after occlusion.

Assay [4] deals with rat traumatic brain injury (TBI) model. The following applies: Cheney et al. 2001; cited from earlier work.

On to `COc1ccc(Cl)cc1C1(F)C(=O)Nc2cc(C(F)(F)F)ccc21` (racemic) [compound of Formula II, 3-(5-chloro-2-methoxyphenyl)-1,3-dihydro-3-fluoro-6-(trifluoromethyl)-2H-indol-2-one], for which the “BK current, % of control of IBTX-sensitive current” value in assay [1] is on record as 170 % of control. Also, in assay [2], the “Effect on non-BK native currents in the oocytes” value is on record as “did not effect”. Further, in assay [3], the “Reduction of cortical infarct volume vs vehicle-treated control” value was “about 28%”.
As for `COc1ccc(Cl)cc1[C@]1(F)C(=O)Nc2cc(C(F)(F)F)ccc21` [Compound of Formula (S)-II, (S)-3-(5-chloro-2-methoxy-phenyl)-3-fluoro-6-trifluoromethyl-1,3-dihydro-indol-2-one], in assay [4], the “Reduction in edema in regions adjacent to the impact zone” value is given as “significant reductions in edema”.
